The source of these data is ChEMBL document CHEMBL2331085, “Identification of Tetrahydropyrido[4,3-d]pyrimidine Amides as a New Class of Orally Bioavailable TGR5 Agonists” (ACS Med Chem Lett, 2013).

Data set [1] in a line: Lipophilicity, log D of the compound by shake-flask method. The conditions noted are these: octanol/water. The data set is classed as physicochemical.
The nature of data set [2]: Oral bioavailability in dog. In kind it is ADME, organism-based, Canis lupus familiaris. Particulars: in vivo.
Data set [3] is described as follows: Half life in dog at 1 mg/kg, iv and 3 mg/kg, po. The data set is classed as ADME, organism-based, Canis lupus familiaris. Particulars: in vivo.
The nature of data set [4]: Clearance in dog at 1 mg/kg, iv and 3 mg/kg, po. In kind it is ADME, organism-based, Canis lupus familiaris. The conditions noted are these: in vivo.
A short description of data set [5]: Volume of distribution at steady state in dog at 1 mg/kg, iv and 3 mg/kg, po. In kind it is ADME, organism-based, Canis lupus familiaris. The conditions noted are these: in vivo, read-out: Vdss.
Data set [6] in a line: Permeability from basolateral to apical side of MDCK cells expressing MDR1. The data set is classed as ADME, cell-based, Canis lupus familiaris. The conditions noted are these: dog.
Data set [7] can be described thus: Permeability from apical to basolateral side of MDCK cells expressing MDR1. In kind it is ADME, cell-based, Canis lupus familiaris. Particulars: dog.

By logD is commonly meant lipophilicity at a set pH, counting ionised and neutral species. As usually defined, the bioavailability is dose-corrected exposure relative to a reference, in per cent. As a reminder, the half-life is the time needed for the level to fall by half in the phase considered. Read a high half-life as slow loss. As a reminder, the Papp B→A is the apparent permeability from the basolateral to the apical side of a cell layer. Usually Papp A→B stands for how fast a substance crosses the layer from the apical side.

The structures appear in SMILES notation.

In data set [1], `COc1ccc2cc(CNCCc3ccc(Br)cc3)c(-c3ccsc3)nc2c1` registered a logD of 5.1.

For `CCNc1nc2c(c(C(N)=O)n1)CN(C(=O)CCc1ccccc1)CC2`, the logD in data set [1] came out at 1.4.

Consider `CCNc1nc2c(c(C(N)=O)n1)CN(C(=O)CCc1ccc(CC)cc1)CC2`, for which the pH-dependent lipophilicity (logD) in data set [1] is 2.4.

`CCNc1nc2c(c(C(N)=O)n1)CN(C(=O)CCc1ccc(C(C)C)cc1)CC2`: in data set [1], the logD worked out at 3.4.

As to `CCNc1nc2c(c(C(N)=O)n1)CN(C(=O)CCc1ccc(OC)cc1)CC2`, the logD in data set [1] worked out at 1.05.

For the compound `CCNc1nc2c(c(C(N)=O)n1)CN(C(=O)CCc1ccc(OC(F)(F)F)cc1)CC2`, in data set [2], the bioavailability stood at 41%. Also, the half-life in data set [3] was 50.4 min. The compound further came in with a clearance in data set [4] of 8.05 mL/min/kg. Besides, the Vd in data set [5] was found to be 0.43 L/kg. In data set [6], this compound registered a basolateral-to-apical permeability (Papp B→A) of 19.2 ×10⁻⁶ cm/s. This compound also yielded an apparent permeability from apical to basolateral (Papp A→B) in data set [7] of 12.4 ×10⁻⁶ cm/s. In addition, in data set [1], the pH-dependent lipophilicity (logD) came out at 3.

With `CCNc1nc2c(c(C(N)=O)n1)CN(C(=O)CCc1ccc(SC(F)(F)F)cc1)CC2`, the pH-dependent lipophilicity (logD) in data set [1] was determined as 3.5.

As to `CCNc1nc2c(c(C(N)=O)n1)CN(C(=O)CCc1ccc(CC(F)(F)F)cc1)CC2`, the log distribution coefficient (logD) in data set [1] worked out at 2.6.

In the case of `CCNc1nc2c(c(C(N)=O)n1)CN(C(=O)CCc1ccc(C(C)(F)F)cc1)CC2`, the logD in data set [1] came to 2.2.

In the case of `CCNc1nc2c(c(C(N)=O)n1)CN(C(=O)CCc1ccc(C(C)(F)F)nc1)CC2`, the log distribution coefficient (logD) in data set [1] was 1.4.

Turning to `CCc1nc2c(c(C(N)=O)n1)CN(C(=O)CCc1ccc(OC(F)(F)F)cc1)CC2`, the pH-dependent lipophilicity (logD) in data set [1] was 2.9.

`CCOc1nc2c(c(C(N)=O)n1)CN(C(=O)CCc1ccc(OC(F)(F)F)cc1)CC2` showed a logD in data set [1] of 2.9.

`NC(=O)c1nc(C2CC2)nc2c1CN(C(=O)CCc1ccc(OC(F)(F)F)cc1)CC2` had a logD in data set [1] of 3.3.

With `Cc1ccc(N(C)C(=O)c2c(-c3ccccc3Cl)noc2C)cc1Cl`, the logD in data set [1] is 3.9.

For `CCc1nnn(-c2ccccc2)c1C(=O)N(C)c1ccc(Cl)cc1`, the logD in data set [1] amounted to 2.9.

`CC[C@H]1[C@@H](O)[C@@H]2[C@H](C[C@H](O)[C@]3(C)[C@@H]([C@H](C)C[C@H](C)C(=O)O)CC[C@@H]23)[C@@]2(C)CCC(O)C[C@@H]12` (single isomer, unassigned): the logD in data set [1] was 1.85.
